The target of this experiment is T1, PARL (Homo sapiens, UniProt Q9H300).
T1 sequence (Q9H300 53-379): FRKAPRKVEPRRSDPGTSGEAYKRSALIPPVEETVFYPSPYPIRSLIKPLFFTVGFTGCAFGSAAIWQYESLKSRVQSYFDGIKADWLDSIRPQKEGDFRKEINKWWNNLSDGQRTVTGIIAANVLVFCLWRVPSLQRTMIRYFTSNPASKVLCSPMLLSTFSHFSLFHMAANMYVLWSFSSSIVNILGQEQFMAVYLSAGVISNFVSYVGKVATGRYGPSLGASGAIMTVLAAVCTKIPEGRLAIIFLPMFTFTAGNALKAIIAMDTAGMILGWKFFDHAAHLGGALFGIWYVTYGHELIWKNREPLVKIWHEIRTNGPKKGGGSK
Kind of experiment: PARL inhibition in vitro, PARL in liposomes with substrate compound 4. More on the design: hexahistidine tag (C); made in house; host or cells: continuous-exchange cell-free expression in bacterial lysates with T7 polymerase (CUBE biotech), into liposomes. Type of experiment: biochemical. As to the method: Liposome preparation and cell-free protein expression of PARL were carried out essentially as described previously.[27] Liposomes resembling the lipid composition of the IMM were prepared by mixing 40% DOPC (1,2-dioleoyl-sn-glycero-3-phosphocholine), 33.8% DOPE (1,2-dioleoyl-sn-glycero-3-phosphoethanolamine), 18% CL(18:1)4 (1′,3′-bis[1,2-dioleyl-sn-glycero-3-phospho]-glycerol), 3% DOPS (1,2-dioleoyl-sn-glycero-3-phospho-L-serine), 5% soy-PI (L-α-phosphatidylinositol), and 0.2% rhodamine-PE (1,2-dioleoyl-sn-glycero-3-phosphoethanolamine-N-(lissamine rhodamine B sulfonyl)) in chloroform, followed by the evaporation of chloroform by a stream of nitrogen gas and drying in a vacuum chamber (Binder) for 1 h. Dried lipids were dissolved in buffer (5 mM Tris/HCl, pH 8.5, 10 mM KOAc) and extruded 21 times through a mini extruder (Avanti Polar Lipids) using a polycarbonate membrane with a pore size of […]. […] The PARL-containing liposomes were purified by a step-wise sucrose step-gradient centrifugation (0, 15, 30, and 40% sucrose in 5 mM HEPES pH 7.5 with 25 mM NaCl) for 2 h at 200,000 × g. Soluble proteoliposomes were harvested at the 0%/15% sucrose interface after the centrifugation. Concentration of PARL was determined by absorption at 280 nm.
PARL inhibition in vitro was measured in 5 mM Tris, 5 mM Mg(OAc)2, 25 μM Zn(OAc)2, 0.1 μg/μL BSA, 10% DMSO, pH 8.0 using PARL in liposomes at 0.07 mg/mL and compound 4 at 100 μM final concentration. Inhibitor concentrations were determined by quantitative amino acid analysis. Inhibitors in DMSO were dissolved at the respective concentrations into the reaction buffer by vigorous mixing at 1000 rpm, 37 °C for 40 min and then pre-incubated with PARL in liposomes at 37° for 1 h. The cleavage reaction was started by adding compound 4 and carried out at 37 °C in 96-well black HTS plates (Greiner Bio-One). Fluorescence was read in a plate reader (Tecan Infinite M1000) with excitation and emission wavelengths set to 355 and 450 nm, respectively. Data were evaluated using Excel (Microsoft) and GraphPad Prism 9 (GraphPad Software, Inc.). The data shown are representative of at least three independent experiments.

Structures are written as SMILES. *1 amine or outer side, *2 acyl side, *3 side chain or, on linkers, in order; H or OH if unused. Where a SMILES comes first, the peptide text is derived from it. [ ]: non-standard residue; d: D form. The star is where a group is joined. NH(4-phenylbutyl) = c1ccc(CCCCN*)cc1; X1 = C[C@H](N[*:1])C(=O)C(=O)[*:2]

Regarding `CC(=O)N[C@@H](C)C(=O)N[C@H](C(=O)N[C@@H](Cc1ccccc1)C(=O)N[C@@H](CC(C)C)C(=O)N[C@@H](C)C(=O)C(=O)NCCCCc1ccccc1)C(C)C` [compound 5] (Ac-AVFL[X1]-{NH(4-phenylbutyl)}), the “Fold better than compound 6 in vitro” value (ratio of IC50 values, compound 5 vs compound 6) was “about 3 fold”. Further, for the setting “recombinant mature PARL in liposomes, 100 μM substrate compound 4, mean ± SEM of three or four measurements”, the IC50 was 28 nM.

The IC50 is the concentration that inhibits the measured activity by half.
